Source: patent US11414404B2, “Compounds for the treatment of BRAF-associated diseases and disorders” (Array BioPharma Inc., priority 2019, dated 2022)
Structures can show the parent of a compound that is named as a salt.

Experiments:
[1] = molecular target: full-length FLAG-tagged B-Raf(V600E) (Homo sapiens (Human), UniProt P15056, V600E); experiment: BRAF V600E enzyme assay (TR-FRET competitive displacement of fluorescent tracer); type: binding; conditions: averaged IC50; 60 min at ambient temperature; 11-point dosing, top dose 10 μM
Text: A competitive displacement assay was configured for B-Raf that monitors the amount of a fluorescently-tagged “tracer” bound to B-Raf via TR-FRET from an anti-tag Eu-labeled antibody also bound to B-Raf.
[formula] • where: • Xmax Average Uninhibited Controls • Xmin Average Background
A 4-parameter logistic model was the fit to the POC data for each compound.

BCRP = BCRP (Homo sapiens (Human), UniProt Q9UNQ0); experiment: BCRP MDCKII permeability assay: efflux ratio; conditions: dog
Method: BCRP transfected MDCKII cells were cultured and plated according to manufacturer's recommendations. Assay conditions included with and without the BCRP-specific inhibitor, K0143, at a concentration of 0.3 μM to ascertain the contribution of BCRP to the efflux value of the test compound.
(§1) Both positive and negative controls were used to assess functionality of P-gp or BCRP efflux in the assays. […] Final organic concentration in the assay was 1%. All dosing solutions contained 10 μM lucifer yellow to monitor LLC-PK1 or MDCKII cell monolayer integrity.
(§2) For the apical to basolateral determination (A to B), 75 μL of the test article in transport buffer were added to the apical side of the individual transwells and 250 μL of basolateral media, without compound or lucifer yellow, were added to each well. For the basolateral to apical determination (B to A), 250 μL of test article in transport buffer were added to each well and 75 μL transport buffer, without compound or lucifer yellow, were added to each transwell. All tests were performed in triplicate, and each compound was tested for both apical to basolateral and basolateral to apical transport. The plates were incubated for 2 hours on a Lab-Line Instruments Titer Orbital Shaker (VWR, West Chester, Pa.) at 50 rpm and 37° C. with 5% CO2. All culture plates were removed from the incubator and 50 μL of media were removed from the apical and basolateral portion of each well and added to 150 μL of 1 μM labetalol in 2:1 acetonitrile (acetonitrile): H2O, v/v.
(§3) These values were accepted when found to be below 2% for apical to basolateral and 5% basolateral to apical flux across the MDR1-transfected LLC-PK1 or BCRP-transfected MDCKII cell monolayers. The plates were sealed and the contents of each well analyzed by LC-MS/MS. The compound concentrations were determined from the ratio of the peak areas of the compound to the internal standard (labetalol) in comparison to the dosing solution.
(§4) The LC-MS/MS system was comprised of an HTS-PAL autosampler (Leap Technologies, Carrboro, N.C.), an HP1200 HPLC (Agilent, Palo Alto, Calif.), and a MDS Sciex 4000 Q Trap system (Applied Biosystems, Foster City, Calif.). […] The total run time, including re-equilibration, for a single injection was 1.2 minutes. Mass spectrometric detection of the analytes was accomplished using the ion spray positive mode.
(§5) An efflux ratio is calculated from the mean apical to basolateral (A−B) Papp data and basolateral to apical (B−A) Papp data: Efflux ratio=Papp(B−A)/Papp(A−B)

P-gp (MDR1) = P-gp (MDR1) (Homo sapiens (Human), UniProt P08183); experiment: MDR1 LLC-PK1 permeability assay: efflux ratio; conditions: pig, LLC-PK1
Method: Both LLC-PK1 and MDR1 transfected LLC-PK1 cells were cultured and plated according to manufacturer's recommendations with the exception that the passage media contained only 2% fetal bovine serum to extend passage time out to seven days.
as §1, §2, §3, §4, §5

[2] = MDR1 LLC-PK1 and BCRP MDCKII permeability assay: permeability coefficient (Papp)

Chain of full-length FLAG-tagged B-Raf(V600E) (P15056 whole entry V600E): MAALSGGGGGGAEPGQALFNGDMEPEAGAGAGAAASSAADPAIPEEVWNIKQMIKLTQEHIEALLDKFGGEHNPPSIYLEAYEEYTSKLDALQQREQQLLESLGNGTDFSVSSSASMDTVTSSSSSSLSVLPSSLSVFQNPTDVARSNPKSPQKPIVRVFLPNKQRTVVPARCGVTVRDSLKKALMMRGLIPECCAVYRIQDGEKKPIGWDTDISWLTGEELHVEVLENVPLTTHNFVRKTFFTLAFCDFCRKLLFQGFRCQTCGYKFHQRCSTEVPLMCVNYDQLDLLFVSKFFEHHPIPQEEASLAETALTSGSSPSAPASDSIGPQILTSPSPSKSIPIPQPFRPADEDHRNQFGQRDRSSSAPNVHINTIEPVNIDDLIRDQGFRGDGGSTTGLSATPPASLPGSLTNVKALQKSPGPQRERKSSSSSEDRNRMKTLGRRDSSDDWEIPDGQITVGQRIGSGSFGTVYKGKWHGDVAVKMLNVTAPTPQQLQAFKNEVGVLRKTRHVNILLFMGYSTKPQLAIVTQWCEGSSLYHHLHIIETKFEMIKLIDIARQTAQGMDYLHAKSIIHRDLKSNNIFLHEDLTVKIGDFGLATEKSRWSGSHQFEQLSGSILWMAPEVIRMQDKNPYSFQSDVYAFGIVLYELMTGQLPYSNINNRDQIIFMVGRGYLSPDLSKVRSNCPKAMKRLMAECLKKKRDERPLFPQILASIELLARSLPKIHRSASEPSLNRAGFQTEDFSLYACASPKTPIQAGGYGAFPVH
Chain of P-gp (MDR1) (P08183 whole entry, species assumed): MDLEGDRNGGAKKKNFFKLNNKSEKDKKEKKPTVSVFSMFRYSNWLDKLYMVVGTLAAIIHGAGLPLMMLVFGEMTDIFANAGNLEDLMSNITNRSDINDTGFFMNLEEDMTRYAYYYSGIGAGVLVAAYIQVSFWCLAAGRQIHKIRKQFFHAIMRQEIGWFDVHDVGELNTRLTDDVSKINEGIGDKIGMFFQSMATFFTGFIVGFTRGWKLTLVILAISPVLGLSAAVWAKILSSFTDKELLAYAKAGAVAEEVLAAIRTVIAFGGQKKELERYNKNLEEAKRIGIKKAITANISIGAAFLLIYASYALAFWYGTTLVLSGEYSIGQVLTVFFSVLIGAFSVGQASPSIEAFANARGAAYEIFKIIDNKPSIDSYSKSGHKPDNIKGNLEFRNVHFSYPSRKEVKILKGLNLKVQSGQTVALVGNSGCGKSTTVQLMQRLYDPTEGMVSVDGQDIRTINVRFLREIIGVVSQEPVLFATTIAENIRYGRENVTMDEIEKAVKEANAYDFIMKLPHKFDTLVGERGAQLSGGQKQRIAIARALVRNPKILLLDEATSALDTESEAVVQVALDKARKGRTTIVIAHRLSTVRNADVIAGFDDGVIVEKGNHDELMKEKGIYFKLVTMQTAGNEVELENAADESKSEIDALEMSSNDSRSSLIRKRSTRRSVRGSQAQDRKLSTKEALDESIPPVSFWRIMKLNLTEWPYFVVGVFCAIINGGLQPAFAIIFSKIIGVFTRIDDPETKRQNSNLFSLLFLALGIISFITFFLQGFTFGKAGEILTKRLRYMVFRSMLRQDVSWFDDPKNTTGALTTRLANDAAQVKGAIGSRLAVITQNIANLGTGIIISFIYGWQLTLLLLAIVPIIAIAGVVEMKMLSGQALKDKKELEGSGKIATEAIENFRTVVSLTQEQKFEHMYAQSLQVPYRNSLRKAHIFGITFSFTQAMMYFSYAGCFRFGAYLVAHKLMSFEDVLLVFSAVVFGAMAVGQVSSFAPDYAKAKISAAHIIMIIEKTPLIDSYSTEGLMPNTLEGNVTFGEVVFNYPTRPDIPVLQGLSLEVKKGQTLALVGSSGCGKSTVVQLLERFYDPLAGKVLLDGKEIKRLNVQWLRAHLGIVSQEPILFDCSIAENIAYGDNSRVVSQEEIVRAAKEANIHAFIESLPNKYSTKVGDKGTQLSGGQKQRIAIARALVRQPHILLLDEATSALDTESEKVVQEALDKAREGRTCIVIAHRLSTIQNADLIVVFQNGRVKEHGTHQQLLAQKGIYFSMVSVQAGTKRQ
Chain of BCRP (Q9UNQ0 whole entry, species assumed): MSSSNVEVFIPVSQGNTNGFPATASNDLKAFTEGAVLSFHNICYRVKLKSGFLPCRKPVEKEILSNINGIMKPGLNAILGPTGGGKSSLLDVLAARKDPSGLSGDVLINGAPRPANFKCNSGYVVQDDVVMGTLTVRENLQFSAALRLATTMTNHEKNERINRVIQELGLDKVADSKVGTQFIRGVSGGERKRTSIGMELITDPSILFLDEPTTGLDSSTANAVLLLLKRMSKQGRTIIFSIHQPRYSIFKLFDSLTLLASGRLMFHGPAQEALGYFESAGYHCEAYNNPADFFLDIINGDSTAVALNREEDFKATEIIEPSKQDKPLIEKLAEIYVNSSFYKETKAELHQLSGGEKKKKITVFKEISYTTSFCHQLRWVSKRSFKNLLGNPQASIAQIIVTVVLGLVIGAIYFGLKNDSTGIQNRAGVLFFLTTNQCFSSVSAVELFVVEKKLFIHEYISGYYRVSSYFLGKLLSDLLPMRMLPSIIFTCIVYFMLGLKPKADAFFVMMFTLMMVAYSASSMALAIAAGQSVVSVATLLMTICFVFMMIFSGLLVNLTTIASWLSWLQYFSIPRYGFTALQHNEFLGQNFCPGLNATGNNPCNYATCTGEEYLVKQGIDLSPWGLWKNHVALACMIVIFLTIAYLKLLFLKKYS

IC50 [1]	efflux ratio at 2 h, 1 µM (BCRP)	efflux ratio at 2 h, 1 µM (P-gp (MDR1))	Papp at 2 h, 1 µM [2]	Structure (SMILES)
0.0439 µM	2.87	2.2	28.7 ×10⁻⁶ cm/s	CCCS(=O)(=O)Nc1ccc(Cl)c(Nc2ccc3ncn(C)c(=O)c3c2C)c1F [Example 40, N-(4-chloro-3-((3,5-dimethyl-4-oxo-3,4-dihydroquinazolin-6-yl)amino)-2-fluorophenyl)propane-1-sulfonamide]
2.82 µM	3.28	2.79	29.8 ×10⁻⁶ cm/s	CCCS(=O)(=O)Nc1ccc(F)c(Nc2ccc3ncn(C)c(=O)c3c2C)c1C [Example 41, N-(3-((3,5-dimethyl-4-oxo-3,4-dihydroquinazolin-6-yl)amino)-4-fluoro-2-methylphenyl)propane-1-sulfonamide]
0.00605 µM	2.84	1.05	24.2 ×10⁻⁶ cm/s	Cc1c(Nc2cc(F)cc(NS(=O)(=O)CCCF)c2Cl)ccc2ncn(C)c(=O)c12 [Example 44, N-(2-chloro-3-((3,5-dimethyl-4-oxo-3,4-dihydroquinazolin-6-yl)amino)-5-fluorophenyl)-3-fluoropropane-1-sulfonamide]
0.00395 µM	0.97	1.24	30.7 ×10⁻⁶ cm/s	Cc1c(Nc2c(F)ccc(NS(=O)(=O)c3ccccc3)c2Cl)ccc2ncn(C)c(=O)c12 [Example 49, N-(2-chloro-3-((3,5-dimethyl-4-oxo-3,4-dihydroquinazolin-6-yl)amino)-4-fluorophenyl)benzenesulfonamide]
0.0355 µM	1.93	2.26	27.6 ×10⁻⁶ cm/s	CCCS(=O)(=O)Nc1ccc(F)c(Nc2ccc3ncn(-c4cccnc4)c(=O)c3c2C)c1Cl [Example 58, N-(2-chloro-4-fluoro-3-((5-methyl-4-oxo-3-(pyridin-3-yl)-3,4-dihydroquinazolin-6-yl)amino)phenyl)propane-1-sulfonamide]
0.0034 µM	1.08	1.36	25.1 ×10⁻⁶ cm/s	CCCS(=O)(=O)Nc1ccc(F)c(Nc2ccc3ncn(CC(F)(F)F)c(=O)c3c2C)c1Cl [Example 59, N-(2-chloro-4-fluoro-3-((5-methyl-4-oxo-3-(2,2,2-trifluoroethyl)-3,4-dihydroquinazolin-6-yl)amino)phenyl)propane-1-sulfonamide]
0.00925 µM	2.35	2.3	29 ×10⁻⁶ cm/s	C#Cc1c(Nc2c(F)ccc(NS(=O)(=O)CCC)c2Cl)ccc2ncn(C)c(=O)c12 [Example 60, N-(2-chloro-3-((5-ethynyl-3-methyl-4-oxo-3,4-dihydroquinazolin-6-yl)amino)-4-fluorophenyl)propane-1-sulfonamide]
0.0977 µM	0.84	1.2	26.6 ×10⁻⁶ cm/s	CCC(C)S(=O)(=O)Nc1ccc(F)c(Nc2ccc3ncn(C)c(=O)c3c2C)c1Cl (centres unmarked) [Example 61, N-(2-chloro-3-((3,5-dimethyl-4-oxo-3,4-dihydroquinazolin-6-yl)amino)-4-fluorophenyl)butane-2-sulfonamide]
0.0158 µM	22.5	2.3	26.3 ×10⁻⁶ cm/s	CCCS(=O)(=O)Nc1ncc(F)c(Oc2ccc3ncn(C)c(=O)c3c2C)c1F [Example 62, N-(4-((3,5-dimethyl-4-oxo-3,4-dihydroquinazolin-6-yl)oxy)-3,5-difluoropyridin-2-yl)propane-1-sulfonamide]
0.0104 µM	31	10.9	9.78 ×10⁻⁶ cm/s	Cc1c(Oc2c(F)cnc(NS(=O)(=O)CCCF)c2F)ccc2ncn(C)c(=O)c12 [Example 64, N-(4-((3,5-dimethyl-4-oxo-3,4-dihydroquinazolin-6-yl)oxy)-3,5-difluoropyridin-2-yl)-3-fluoropropane-1-sulfonamide]
0.0924 µM	0.9	1.4	177 ×10⁻⁶ cm/s	CCCS(=O)(=O)Nc1ccc(F)c(Sc2ccc3ncn(C)c(=O)c3c2C)c1Cl [Example 65, N-(2-chloro-3-((3,5-dimethyl-4-oxo-3,4-dihydroquinazolin-6-yl)thio)-4-fluorophenyl)propane-1-sulfonamide]

The remaining lines, values behind:

Structure (SMILES)	IC50 [1]	efflux ratio at 2 h, 1 µM (BCRP)	efflux ratio at 2 h, 1 µM (P-gp (MDR1))	Papp at 2 h, 1 µM [2]
COCCS(=O)(=O)Nc1ccc(F)c(Nc2ccc3ncn(C)c(=O)c3c2C)c1Cl [Example 27, N-(2-chloro-3-((3,5-dimethyl-4-oxo-3,4-dihydroquinazolin-6-yl)amino)-4-fluorophenyl)-2-methoxyethane-1-sulfonamide]	0.207 µM	2.09	1.4	34.5 ×10⁻⁶ cm/s
CCCS(=O)(=O)Nc1ccc(F)c(Nc2ccc3ncn(C)c(=O)c3c2C)c1C#N [Example 28, N-(2-cyano-3-((3,5-dimethyl-4-oxo-3,4-dihydroquinazolin-6-yl)amino)-4-fluorophenyl)propane-1-sulfonamide]	0.002 µM	33	6.46	26.8 ×10⁻⁶ cm/s
CCCS(=O)(=O)Nc1ccc(F)c(Nc2ccc3ncn(Cc4ccccc4)c(=O)c3c2C)c1Cl [Example 29, N-(3-((3-benzyl-5-methyl-4-oxo-3,4-dihydroquinazolin-6-yl)amino)-2-chloro-4-fluorophenyl)propane-1-sulfonamide]	0.174 µM	0.87	1.61	12 ×10⁻⁶ cm/s
CCCS(=O)(=O)Nc1ccc(F)c(Nc2ccc3ncn(CCOC)c(=O)c3c2C)c1Cl [Example 30, N-(2-chloro-4-fluoro-3-((3-(2-methoxyethyl)-5-methyl-4-oxo-3,4-dihydroquinazolin-6-yl)amino)phenyl)propane-1-sulfonamide]	0.0455 µM	1.92	2.59	24.8 ×10⁻⁶ cm/s
CCCS(=O)(=O)Nc1ccc(F)c(Nc2ccc3ncn(C4CC4)c(=O)c3c2C)c1Cl [Example 31, N-(2-chloro-3-((3-cyclopropyl-5-methyl-4-oxo-3,4-dihydroquinazolin-6-yl)amino)-4-fluorophenyl)propane-1-sulfonamide trifluoroacetate]	0.0251 µM	1.64	1.59	24.5 ×10⁻⁶ cm/s
CCCS(=O)(=O)Nc1ccc(F)c(Nc2ccc3ncn(-c4ccccc4)c(=O)c3c2C)c1Cl [Example 32, N-(2-chloro-4-fluoro-3-((5-methyl-4-oxo-3-phenyl-3,4-dihydroquinazolin-6-yl)amino)phenyl)propane-1-sulfonamide trifluoroacetate]	0.0927 µM	1	0.86	15.6 ×10⁻⁶ cm/s
CCCS(=O)(=O)Nc1ccc(F)c(Nc2ccc3ncn(C4CCC4)c(=O)c3c2C)c1Cl [Example 33, N-(2-chloro-3-((3-cyclobutyl-5-methyl-4-oxo-3,4-dihydroquinazolin-6-yl)amino)-4-fluorophenyl)propane-1-sulfonamide trifluoroacetate]	0.024 µM	1.33	1.2	21.9 ×10⁻⁶ cm/s
CCCS(=O)(=O)Nc1ccc(F)c(Nc2ccc3ncn([C@@H]4CCOC4)c(=O)c3c2C)c1Cl [Example 34, (R)-N-(2-chloro-4-fluoro-3-((5-methyl-4-oxo-3-(tetrahydrofuran-3-yl)-3,4-dihydroquinazolin-6-yl)amino)phenyl)propane-1-sulfonamide trifluoroacetate]	0.0089 µM	2.19	1.81	27.7 ×10⁻⁶ cm/s
CCCS(=O)(=O)Nc1ccc(F)c(Nc2ccc3ncn([C@H]4CCOC4)c(=O)c3c2C)c1Cl [Example 35, (S)-N-(2-chloro-4-fluoro-3-((5-methyl-4-oxo-3-(tetrahydrofuran-3-yl)-3,4-dihydroquinazolin-6-yl)amino)phenyl)propane-1-sulfonamide trifluoroacetate]	0.0245 µM	1.78	1.92	29.4 ×10⁻⁶ cm/s
CCCS(=O)(=O)Nc1ccc(F)c(Nc2ccc3ncn(CC)c(=O)c3c2C)c1Cl [Example 37, N-(2-chloro-3-((3-ethyl-5-methyl-4-oxo-3,4-dihydroquinazolin-6-yl)amino)-4-fluorophenyl)propane-1-sulfonamide trifluoroacetate]	0.0055 µM	0.87	0.94	29.9 ×10⁻⁶ cm/s
CCCS(=O)(=O)Nc1ccc(F)c(Nc2ccc3ncn(CC4CC4)c(=O)c3c2C)c1Cl [Example 38, N-(2-chloro-3-((3-(cyclopropylmethyl)-5-methyl-4-oxo-3,4-dihydroquinazolin-6-yl)amino)-4-fluorophenyl)propane-1-sulfonamide]	0.0283 µM	1.57	1.15	20.6 ×10⁻⁶ cm/s
CCCS(=O)(=O)Nc1ccc(F)c(Nc2ccc3ncn(C4CCCC4)c(=O)c3c2C)c1Cl [Example 39, N-(2-chloro-3-((3-cyclopentyl-5-methyl-4-oxo-3,4-dihydroquinazolin-6-yl)amino)-4-fluorophenyl)propane-1-sulfonamide trifluoroacetate]	0.0526 µM	1.33	1.29	14.2 ×10⁻⁶ cm/s
